Measured values as given in PubChem BioAssay AID330 (DTP/NCI, 2004).
Several values for one entry are separate records, joined by “and”; a condition that tells them apart may be missing. Identical values can stand only once. Toxic doses and inconclusive results are not listed.

Tested on: P388 leukemia ip, CD2F1 mice, survival T/C
Assay: NCI In Vivo Anticancer Drug Screen. Data for tumor model P388 Leukemia (intraperitoneal) in CD2F1 (CDF1) mice
Settings: higher = longer survival
Method in brief: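 Mice carrying the transplanted tumor received test compound or vehicle. Survival was recorded in each group, and the value is the treated-group measurement divided by that of the vehicle-treated control group.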

[1] = endpoint: median survival time, dose: 25.0 mg/kg/injection, schedule: Q01DX005 (ip), vehicle: saline with Tween-80
[2] = endpoint: median survival time, dose: 50.0 mg/kg/injection, schedule: Q01DX005 (ip), vehicle: saline with Tween-80
[3] = endpoint: median survival time, dose: 100.0 mg/kg/injection, schedule: Q01DX005 (ip), vehicle: saline with Tween-80
[4] = endpoint: median survival time, dose: 200.0 mg/kg/injection, schedule: Q01DX005 (ip), vehicle: saline with Tween-80

SMILES: CCN(CC)c1nc(Cl)nc(N(CC)CC)n1
- T/C [1]: 99 % of control and 97 % of control
- T/C [2]: 103 % of control [middle of 4 runs]
- T/C [3]: 106 % of control and 101 % of control and 107 % of control
- T/C [4]: 113 % of control [middle of 4 runs]
- T/C (endpoint: median survival time, dose: 400.0 mg/kg/injection, schedule: Q01DX005 (ip), vehicle: saline with Tween-80): 100 % of control

SMILES: Oc1ccc(N=C2N=c3c(c4ccccc4c4ccccc34)=N2)c2ccccc12
- T/C [1]: 98 % of control
- T/C [2]: 100 % of control
- T/C [3]: 100 % of control
- T/C [4]: 107 % of control

SMILES: ClCC[N-]CC[N-]CCCl.ClCC[N-]CC[N-]CCCl.[O-][Cl+3]([O-])([O-])O.[Zn+2]
- T/C (endpoint: median survival time, dose: 5.0 mg/kg/injection, schedule: Q04DX003 (ip), vehicle: saline with Tween-80): 102 % of control
- T/C (endpoint: median survival time, dose: 10.0 mg/kg/injection, schedule: Q04DX003 (ip), vehicle: saline with Tween-80): 111 % of control

SMILES: CC(=O)C(C)S(=O)(=O)O (stereo not given)
- T/C (endpoint: median survival time, dose: 100.0 mg/kg/injection, schedule: Q01DX001 (ip), vehicle: saline): 106 % of control
- T/C (endpoint: median survival time, dose: 200.0 mg/kg/injection, schedule: Q01DX001 (ip), vehicle: saline): 106 % of control
- T/C (endpoint: median survival time, dose: 400.0 mg/kg/injection, schedule: Q01DX001 (ip), vehicle: saline): 106 % of control

SMILES: Nc1ccccc1N=C(CC(=O)c1ccccc1)C(F)(F)F
- T/C (endpoint: median survival time, dose: 100.0 mg/kg/injection, schedule: Q04DX002 (ip), vehicle: saline): 99 % of control
- T/C (endpoint: median survival time, dose: 200.0 mg/kg/injection, schedule: Q04DX002 (ip), vehicle: saline): 101 % of control
- T/C (endpoint: median survival time, dose: 400.0 mg/kg/injection, schedule: Q04DX002 (ip), vehicle: saline): 97 % of control

SMILES: CSc1nc(C)c(C(=O)CCN2CCOCC2)s1
- T/C (endpoint: median survival time, dose: 60.0 mg/kg/injection, schedule: Q01DX005 (ip), vehicle: saline): 117 % of control
- T/C (endpoint: median survival time, dose: 120.0 mg/kg/injection, schedule: Q01DX005 (ip), vehicle: saline): 105 % of control

SMILES: O=C1C2=C(Nc3cc(Cl)ccc3N2)OC1c1ccc(C2OC3=C(Nc4ccc(Cl)cc4N3)C2=O)cc1 (stereo not given)
- T/C (endpoint: median survival time, dose: 60.0 mg/kg/injection, schedule: Q01DX005 (ip), vehicle: Klucel (hydroxypropylcellulose) (HPC)): 104 % of control
- T/C (endpoint: median survival time, dose: 120.0 mg/kg/injection, schedule: Q01DX005 (ip), vehicle: Klucel (hydroxypropylcellulose) (HPC)): 111 % of control
- T/C (endpoint: median survival time, dose: 240.0 mg/kg/injection, schedule: Q01DX005 (ip), vehicle: Klucel (hydroxypropylcellulose) (HPC)): 105 % of control

SMILES: CCCCCCCCCC#CC(=O)OC
- T/C (endpoint: median survival time, dose: 50.0 mg/kg/injection, schedule: Q01DX009 (ip), vehicle: saline): 105 % of control
- T/C (endpoint: median survival time, dose: 100.0 mg/kg/injection, schedule: Q01DX009 (ip), vehicle: saline): 105 % of control
- T/C (endpoint: median survival time, dose: 200.0 mg/kg/injection, schedule: Q01DX009 (ip), vehicle: saline): 105 % of control

SMILES: O=c1[nH]c2ccccc2c(=O)n1-c1ccccc1
- T/C (endpoint: median survival time, dose: 100.0 mg/kg/injection, schedule: Q01DX009 (ip), vehicle: saline with Tween-80): 101 % of control and 109 % of control
- T/C (endpoint: median survival time, dose: 200.0 mg/kg/injection, schedule: Q01DX009 (ip), vehicle: saline with Tween-80): 96 % of control
- T/C (endpoint: median survival time, dose: 400.0 mg/kg/injection, schedule: Q01DX009 (ip), vehicle: saline with Tween-80): 113 % of control and 95 % of control

SMILES: CS(=O)(=O)OCCCN(CCCOS(C)(=O)=O)CCCN1CCOCC1
- T/C (endpoint: mean survival time, dose: 20.0 mg/kg/injection, schedule: Q01DX009 (ip), vehicle: saline): 247 % of control
- T/C (endpoint: mean survival time, dose: 40.0 mg/kg/injection, schedule: Q01DX009 (ip), vehicle: saline): 238 % of control
- T/C (endpoint: mean survival time, dose: 60.0 mg/kg/injection, schedule: Q01DX009 (ip), vehicle: saline): 263 % of control
- T/C (endpoint: median survival time, dose: 20.0 mg/kg/injection, schedule: Q01DX009 (ip), vehicle: saline): 227 % of control
- T/C (endpoint: median survival time, dose: 40.0 mg/kg/injection, schedule: Q01DX009 (ip), vehicle: saline): 222 % of control
- T/C (endpoint: median survival time, dose: 60.0 mg/kg/injection, schedule: Q01DX009 (ip), vehicle: saline): 254 % of control

SMILES: c1ccc2c(c1)Cc1ccnnc1-2
- T/C [2]: 103 % of control
- T/C [3]: 103 % of control
- T/C [4]: 92 % of control

SMILES: C=C1[C@@H](OC(C)=O)C[C@@H]2C[C@]3(C)C(OC(C)=O)CC(C)(C)[C@@H]3C12O (stereo not given in full)
- T/C (endpoint: median survival time, dose: 1.75 mg/kg/injection, schedule: Q01DX005 (ip), vehicle: saline): 98 % of control
- T/C (endpoint: median survival time, dose: 3.5 mg/kg/injection, schedule: Q01DX005 (ip), vehicle: saline): 100 % of control
- T/C (endpoint: median survival time, dose: 7.0 mg/kg/injection, schedule: Q01DX005 (ip), vehicle: saline): 97 % of control
